# Changes are numbered by the printed parent chain.
# Columns and labels:
# Details in all cases: at 1 µM
# [1] = tested on: T1, Receptor-type tyrosine-protein kinase FLT3 (Homo sapiens), P36888 [D835H]; assay: (§1) Selectivity interaction (KinomeScan (DiscoverX)) EUB0001079a FLT3
# T1 sequence (whole entry): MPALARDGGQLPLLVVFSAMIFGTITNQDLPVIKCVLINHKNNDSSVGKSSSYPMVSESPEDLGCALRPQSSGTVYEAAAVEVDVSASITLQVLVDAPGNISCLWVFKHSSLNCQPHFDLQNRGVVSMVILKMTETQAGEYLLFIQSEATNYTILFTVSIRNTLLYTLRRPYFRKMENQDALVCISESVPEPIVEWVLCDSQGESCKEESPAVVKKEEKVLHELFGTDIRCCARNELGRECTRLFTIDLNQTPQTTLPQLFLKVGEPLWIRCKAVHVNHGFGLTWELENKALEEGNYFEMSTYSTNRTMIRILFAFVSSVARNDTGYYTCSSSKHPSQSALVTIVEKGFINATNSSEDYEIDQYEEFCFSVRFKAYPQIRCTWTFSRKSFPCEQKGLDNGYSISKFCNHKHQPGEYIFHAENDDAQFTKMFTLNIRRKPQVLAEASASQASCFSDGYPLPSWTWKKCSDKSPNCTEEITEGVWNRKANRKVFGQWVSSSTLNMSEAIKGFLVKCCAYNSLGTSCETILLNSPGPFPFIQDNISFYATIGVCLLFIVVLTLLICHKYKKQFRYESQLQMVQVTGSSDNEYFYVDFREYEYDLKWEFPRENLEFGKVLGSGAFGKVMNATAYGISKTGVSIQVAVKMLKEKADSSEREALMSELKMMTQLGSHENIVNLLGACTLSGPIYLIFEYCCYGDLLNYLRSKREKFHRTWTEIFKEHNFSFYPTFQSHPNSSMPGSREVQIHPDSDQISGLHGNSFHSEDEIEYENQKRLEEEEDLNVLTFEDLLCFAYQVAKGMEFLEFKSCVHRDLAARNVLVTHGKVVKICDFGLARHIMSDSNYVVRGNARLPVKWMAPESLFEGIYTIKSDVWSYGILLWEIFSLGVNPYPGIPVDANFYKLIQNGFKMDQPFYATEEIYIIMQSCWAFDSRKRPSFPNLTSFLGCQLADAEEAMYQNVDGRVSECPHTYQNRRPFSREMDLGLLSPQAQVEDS
# [2] = tested on: T2, Receptor-type tyrosine-protein kinase FLT3 (Homo sapiens), P36888 [D835V]; assay: as §1
# T2 sequence (whole entry): T1 sequence (whole entry) with H835V
# [3] = tested on: T3, Receptor-type tyrosine-protein kinase FLT3 (Homo sapiens), P36888 [N841I]; assay: as §1
# T3 sequence (whole entry): T1 sequence (whole entry) with H835D, N841I
# [4] = tested on: Receptor-type tyrosine-protein kinase FLT3 (Homo sapiens), P36888 [UNDEFINED MUTATION]; assay: as §1
compound,measurement,setting,value
Nc1cnc(N2CCc3cc(S(=O)(=O)Nc4c(F)cc(Cl)cc4F)cc(N4CCCC4=O)c32)nc1 [TP-020n],% of control,[1],100%
same,% of control,[2],100%
same,% of control,[3],89%
same,% of control,[4],92%

# — ChEMBL document CHEMBL5465560, “Selectivity Literature for EUbOPEN Chemogenomic Library” (2024)
